Reference: US6787566B2, “Breakers of advanced glycation endproducts” (City of Hope, priority 1999, dated 2004)

Key:
[1] = biological target: T1, cross-linked collagen-AGE-BSA (Rattus norvegicus, UniProt P02454+P02466); assay: AGE-BSA-collagen ELISA: cleavage of glycated BSA cross-linked to collagen; format: biochemical; conditions: for AGE-breaking activity (cleavage of cross-linked collagen-AGE-BSA), in words: 0.1-10 mM final concentration, FIGS. 1A and 1C; for Concentration dependence of AGE-BSA-collagen crosslink breaking, in words: FIGS. 1A-C
T1 construct: purchased Biocoat (Collaborative Research, Bedford, Mass.) for the collagen-coated plates; Sigma Chemical co. for bovine serum albumin
T1 sequence (P02454 152-1207 limits assumed): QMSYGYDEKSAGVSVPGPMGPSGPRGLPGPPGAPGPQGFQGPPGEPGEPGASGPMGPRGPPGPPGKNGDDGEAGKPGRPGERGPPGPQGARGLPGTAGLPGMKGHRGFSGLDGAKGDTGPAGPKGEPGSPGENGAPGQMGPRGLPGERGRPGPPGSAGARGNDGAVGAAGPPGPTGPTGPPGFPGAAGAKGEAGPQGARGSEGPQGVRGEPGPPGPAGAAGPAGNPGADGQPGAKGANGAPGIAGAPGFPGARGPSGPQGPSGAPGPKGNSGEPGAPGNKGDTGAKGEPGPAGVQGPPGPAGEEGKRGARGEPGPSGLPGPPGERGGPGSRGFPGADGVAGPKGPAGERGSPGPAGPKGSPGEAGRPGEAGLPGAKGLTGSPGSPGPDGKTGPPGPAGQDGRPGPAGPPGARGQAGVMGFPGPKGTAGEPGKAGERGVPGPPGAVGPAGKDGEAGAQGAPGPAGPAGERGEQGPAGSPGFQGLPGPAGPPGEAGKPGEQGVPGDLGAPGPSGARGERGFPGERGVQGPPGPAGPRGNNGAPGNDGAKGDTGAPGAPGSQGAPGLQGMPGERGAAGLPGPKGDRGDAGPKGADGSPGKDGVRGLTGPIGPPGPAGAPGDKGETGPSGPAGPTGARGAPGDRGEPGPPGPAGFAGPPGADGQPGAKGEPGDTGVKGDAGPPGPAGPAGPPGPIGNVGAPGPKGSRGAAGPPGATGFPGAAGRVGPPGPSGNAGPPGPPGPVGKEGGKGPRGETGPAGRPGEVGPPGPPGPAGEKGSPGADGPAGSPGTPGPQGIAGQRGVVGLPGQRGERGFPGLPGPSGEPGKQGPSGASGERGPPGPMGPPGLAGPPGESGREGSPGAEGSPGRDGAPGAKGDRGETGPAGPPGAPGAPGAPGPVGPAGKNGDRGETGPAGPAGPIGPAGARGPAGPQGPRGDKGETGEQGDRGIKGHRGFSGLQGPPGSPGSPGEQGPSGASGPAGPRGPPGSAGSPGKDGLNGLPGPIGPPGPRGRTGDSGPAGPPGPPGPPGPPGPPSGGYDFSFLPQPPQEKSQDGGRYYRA
T1 sequence (P02466 86-1125 limits assumed): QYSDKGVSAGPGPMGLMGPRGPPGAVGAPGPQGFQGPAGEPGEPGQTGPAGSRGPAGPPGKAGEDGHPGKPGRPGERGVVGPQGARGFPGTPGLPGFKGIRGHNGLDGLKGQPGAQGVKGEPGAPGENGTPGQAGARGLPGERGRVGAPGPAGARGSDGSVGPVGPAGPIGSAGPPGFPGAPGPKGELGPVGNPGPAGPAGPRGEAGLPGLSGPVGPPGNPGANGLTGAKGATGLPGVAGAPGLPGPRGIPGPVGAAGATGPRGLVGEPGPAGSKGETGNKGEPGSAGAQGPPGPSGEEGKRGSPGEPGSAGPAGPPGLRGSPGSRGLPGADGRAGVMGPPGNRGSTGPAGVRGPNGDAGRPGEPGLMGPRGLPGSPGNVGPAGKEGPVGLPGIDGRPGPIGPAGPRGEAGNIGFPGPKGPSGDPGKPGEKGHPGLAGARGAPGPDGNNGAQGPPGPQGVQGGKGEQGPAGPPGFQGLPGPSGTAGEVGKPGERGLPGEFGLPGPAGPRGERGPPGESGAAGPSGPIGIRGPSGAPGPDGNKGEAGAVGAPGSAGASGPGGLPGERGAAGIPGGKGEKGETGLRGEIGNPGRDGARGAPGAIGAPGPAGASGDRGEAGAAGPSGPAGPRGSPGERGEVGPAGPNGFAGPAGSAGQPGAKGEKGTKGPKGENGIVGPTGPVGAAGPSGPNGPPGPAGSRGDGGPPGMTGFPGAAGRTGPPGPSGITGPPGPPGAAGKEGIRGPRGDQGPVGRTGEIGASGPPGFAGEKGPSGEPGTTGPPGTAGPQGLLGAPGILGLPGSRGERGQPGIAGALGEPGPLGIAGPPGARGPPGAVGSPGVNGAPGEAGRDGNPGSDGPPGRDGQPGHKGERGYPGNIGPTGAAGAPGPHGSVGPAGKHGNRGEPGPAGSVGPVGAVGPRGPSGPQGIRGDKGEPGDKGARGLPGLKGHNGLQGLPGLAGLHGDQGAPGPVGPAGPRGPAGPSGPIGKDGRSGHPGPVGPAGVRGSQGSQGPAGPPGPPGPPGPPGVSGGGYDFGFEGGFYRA
Experimental: In vitro evaluation of the ability of the AGE-breaker compounds to cleave and break cross-linking of glycated BSA (AGE-BSA) (prepared as described (Rahbar et al., 1999)) to the rat-tail-tendon-collagen was by a special ELISA (Vasan et al., 1996). The rat-tail-tendon-collagen coated plates were first blocked first with 300 μL of Superblock blocking buffer (Pierce Chemicals, Rockford, Ill.) for one hour. The blocking solution was removed from the wells by washing the plates twice with PBS-0.05% Tween 20 (PBS-T) using a Dynatech ELISA-plate washer. Cross-linking of various concentrations of AGE-BSA (0, 0.01, 0.05, 0.1, 0.25, 0.50, and 1.0 μg per well) to rat-tail-collagen coated plates was performed without the testing compound, and the plates were incubated for 5 hours at 37° C. After washing the wells three times with PBS-T to remove the unattached AGE-BSA, test concentrations of the compound (50 μL/well) dissolved in PBS were added to wells in triplicate and incubation continued at 37° C. overnight. After washing with PBS-T, the amount of BSA remaining attached to the tail collagen plate was then quantified by addition of rabbit anti-BSA polyclonal antibodies (50 μL/well) for 1 hour at 37° C. The wells were then washed three times with PBS-T and developed with the chromogenic substrate ABTS (100 μL/well). Absorbance was measured at 410 nm in microplate reader (BioRad, Hercules, Calif.).
The percentage breaking activity is calculated by the following formula: 100×[(A410, PBS control)−(A410, AGE-breaker compound)]/[A410, PBS control].

[2] = biological target: T2, native and glycated β-amyloid (1-40) peptide fibrils (Homo sapiens, UniProt P05067); assay: Thioflavine T fluorescence assay of β-amyloid fibril disaggregation; format: biochemical; conditions: ThT assay
T2 construct: β-amyloid (1-40) peptide was from Bachem (Torrance, Calif.); purchased Bachem (Torrance, Calif.)
T2 sequence (P05067 672-711): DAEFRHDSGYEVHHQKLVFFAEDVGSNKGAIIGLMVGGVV
Experimental: Both dyes have been adapted to in vitro measurements of amyloid fibril formation and quantification. ThT binding to β-amyloids gives rise to a large fluorescence excitation spectral shift that allows selective excitation of the amyloid fibril bound ThT (Tjernberg et al., 1999). In the present study, we have investigated the disaggregation of both native (unmodified) and glycated β-amyloid (1-40) peptide by the AGE-breaker compounds introduced here. Stock solutions of peptide were dissolved in deionized water at a concentration of 1 mg/mL. For AGE crosslinking experiments, they were incubated in 4 mL polypropylene tubes at a concentration of 250 μg/mL (60 μM) and 50 mM glucose in 50 mM sodium phosphate buffer, pH 7.9, at 50° C. in the dark for 5 days. Sodium azide (0.01% w/v) was added to prevent microbiological growth. In long-term experiments, water was added every 12 hours to compensate for solvent evaporation. AGE-β-amyloid was then dialyzed against double-distilled water using Spectra/Por CE dialysis membrane (molecular mass cut off: 1000 Da), and then freeze dried. Two sets of experiments were prepared for each compound. Solutions for the first experiment contained 100 μM of β-amyloid in 50 mM Tris-buffered saline (TBS) pH 7.4, and […] (the drugs were dissolved in DMSO and the solutions were prepared for dilution from this DMSO stock). The second set contained 100 μM of β-amyloid in TBS and 100 μM of one compound. The reactions were incubated at 37° C. for 24 hours without stirring (stagnant assay). Control experiments were prepared accordingly except that no AGE-breaker compounds were added to the tubes. The same protocol was used for both native and glycated β-amyloid peptides. The incubated samples are vortexed and 40 μL aliquots are withdrawn and mixed with 960 μL of 10 μM ThT in 10 mM sodium phosphate-buffer. Fluorescence measurements were taken with excitation of 437 nm and emission at 485 nm. Slit widths are set to 5 nm.

[3] = tested on: IgG-AGE cross-linked to the rat RBC surface; assay: Cleavage of IgG-AGE cross-linked to RBC surface, anti-IgG ELISA; format: cell-based; conditions: RBCs of diabetic rats vs diabetic and non-diabetic controls; FIG. 6
Experimental: IgG cross-linked to the RBC surface was determined with an anti-IgG by a modification of the method described by Vasan et al. (1996). Briefly, heparinized blood was drawn from the tail vein in capillary tubes, inverted several times, then centrifuged at 200×g for five minutes at room temperature. RBCs were washed three times with PBS in 0.5 mL microfuge tubes and packed with a final centrifugation at 500×g. Red cells were diluted at 1:10 to 1:100 in Dulbecco's Modified Eagle's Medium that is normal for glucose. Experimental compounds were added at desired concentrations and incubated at 37° C. in a CO2 incubator for 24 hours in sterile conditions. Control incubations contained RBCs and PBS alone. After incubation, RBCs were washed three times in PBS and packed cells diluted 1:200 to 1:500. The RBC suspensions were gently vortexed and 50 μL aliquots added to 450 μL of a polyclonal rabbit anti-rat IgG conjugated to alkaline phosphatase (diluted 1:2500 in PBS). […] The RBCs were pelleted and the supernatant was read at […] in either a conventional spectrometer or an ELISA reader. Blank readings were obtained by incubating tubes without cells.

[4] = tested on: crosslinks formed in skin and tail collagen of diabetic rats; conditions: cited from earlier work
β-amyloid fibrils = biological target: T3, β-amyloid fibrils (Homo sapiens, UniProt P05067); conditions: 20 mM; cited from earlier work
T3 construct: β-AP (amino acids 1-40, from Bachem, Torrance, Calif.)
T3 sequence (P05067 672-711): as above

Molecule	AGE-breaking activity (cleavage of cross-linked collagen-AGE-BSA), in words [1]	Concentration dependence of AGE-BSA-collagen crosslink breaking, in words [1]	Overall AGE-breaking property, in words ([1]; overall judgement of the patent's tests)	Disaggregation of fibrillar forms of native and glycated β-amyloid, in words [2]	IgG-AGE bound to RBC surface, in words [3]	Cleaving crosslinks formed in skin and tail collagen, in words [4]	Disaggregation of β-amyloid fibrils, in words (β-amyloid fibrils)
1,4-benzene-bis[4-methyleneaminophenoxyisobutyric acid] [LR102]	very effective AGE-breakers	more potent at lower concentrations	most effective AGE-breakers	clearly confirmed the efficacy	almost the same IgG-AGE content as that of non-diabetic control	–	–
Cc1sc[n+](CC(=O)c2ccccc2)c1C.[Cl-] [ALT711]	–	–	–	–	–	not effective	–
O=C(C[n+]1ccsc1)c1ccccc1.[Br-] [PTB, N-phenacylthiazolium bromide]	–	–	–	–	–	–	disaggregates β-amyloid fibrils
methylene bis [LR90, methylene bis [4,4′-(2-chlorophenylureidophenoxyisobutyric acid)]]	very effective AGE-breakers	more effective breakers at higher concentrations	–	clearly confirmed the efficacy	–	–	–
